These results are taken from ChEMBL document CHEMBL1817663, “A synthetic antimicrobial peptidomimetic (LTX 109): stereochemical impact on membrane disruption” (J Med Chem, 2011).

Data set [1] deals with Escherichia coli. The experiment in a line: Antibacterial activity against Escherichia coli ATCC 25922. The class given is functional.
The subject of data set [2] is Pseudomonas aeruginosa. The experiment in a line: Antibacterial activity against Pseudomonas aeruginosa ATCC 27853. The class given is functional.
Data set [3] relates to Staphylococcus aureus. The experiment in a line: Antibacterial activity against Staphylococcus aureus ATCC 25923. The class given is functional.
Data set [4] in a line: Toxicity in human erythrocytes assessed as hemolytic activity. The class given is cell-based, Erythrocyte. Conditions: read-out: HD50 (the source's name).

Values after ≈ are worked out from the molar mass of the structure shown.

In the case of `CC(C)(C)c1cc(C(C)(C)C)c2[nH]c(C(C)(C)C)c(C[C@@H](NC(=O)[C@H](N)CCCNC(=N)N)C(=O)N[C@H](CCCNC(=N)N)C(=O)NCCc3ccccc3)c2c1`, the figures for the MIC in data set [1], in data set [2] and in data set [3] were 3 µg/mL (≈ 3.81 µM), 8 µg/mL (≈ 10.2 µM) and 3 µg/mL (≈ 3.81 µM), respectively. The HC50 in data set [4] was determined as 120 µg/mL.
For the compound `CC(C)(C)c1cc(C(C)(C)C)c2[nH]c(C(C)(C)C)c(C[C@H](NC(=O)[C@H](N)CCCNC(=N)N)C(=O)N[C@@H](CCCNC(=N)N)C(=O)NCCc3ccccc3)c2c1`, the results for the MIC in data set [1], in data set [2] and in data set [3] were 3 µg/mL (≈ 3.81 µM), 10 µg/mL (≈ 12.7 µM) and 2 µg/mL (≈ 2.54 µM), respectively. In data set [4], the HC50 stood at 175 µg/mL.
Turning to `CC(C)(C)c1cc(C(C)(C)C)c2[nH]c(C(C)(C)C)c(C[C@@H](NC(=O)[C@@H](N)CCCNC(=N)N)C(=O)N[C@H](CCCNC(=N)N)C(=O)NCCc3ccccc3)c2c1`, the MIC came to 4 µg/mL (≈ 5.08 µM) in data set [1], 8 µg/mL (≈ 10.2 µM) in data set [2] and 2 µg/mL (≈ 2.54 µM) in data set [3]. Moreover, the HC50 in data set [4] is 135 µg/mL.
As for `CC(C)(C)c1cc(C(C)(C)C)c2[nH]c(C(C)(C)C)c(C[C@@H](NC(=O)[C@@H](N)CCCNC(=N)N)C(=O)N[C@@H](CCCNC(=N)N)C(=O)NCCc3ccccc3)c2c1`, the MIC was determined as 9 µg/mL (≈ 11.4 µM) in data set [1], 30 µg/mL (≈ 38.1 µM) in data set [2] and 3 µg/mL (≈ 3.81 µM) in data set [3]. For the same compound, the HC50 in data set [4] was found to be 510 µg/mL.
On the same counts, the results for `CC(C)(C)c1cc(C(C)(C)C)c2[nH]c(C(C)(C)C)c(C[C@H](NC(=O)[C@H](N)CCCNC(=N)N)C(=O)N[C@H](CCCNC(=N)N)C(=O)NCCc3ccccc3)c2c1` are 7 µg/mL (≈ 8.88 µM), 50 µg/mL (≈ 63.4 µM), 3 µg/mL (≈ 3.81 µM) and 600 µg/mL.
Take `CC(C)(C)c1cc(C(C)(C)C)c2[nH]c(C(C)(C)C)c(C[C@H](NC(=O)[C@@H](N)CCCNC(=N)N)C(=O)N[C@H](CCCNC(=N)N)C(=O)NCCc3ccccc3)c2c1`: the values for the MIC in data set [1], in data set [2] and in data set [3] were 10 µg/mL (≈ 12.7 µM), 50 µg/mL (≈ 63.4 µM) and 3 µg/mL (≈ 3.81 µM), respectively. Besides, the HC50 in data set [4] was found to be 535 µg/mL.
With `CC(C)(C)c1cc(C(C)(C)C)c2[nH]c(C(C)(C)C)c(C[C@@H](NC(=O)[C@H](N)CCCNC(=N)N)C(=O)N[C@@H](CCCNC(=N)N)C(=O)NCCc3ccccc3)c2c1`, the MIC in data set [1] was 10 µg/mL (≈ 12.7 µM); in data set [2], 50 µg/mL (≈ 63.4 µM); in data set [3] it was 4 µg/mL (≈ 5.08 µM). In addition, the HC50 in data set [4] came to 605 µg/mL.
With `CC(C)(C)c1cc(C(C)(C)C)c2[nH]c(C(C)(C)C)c(C[C@H](NC(=O)[C@@H](N)CCCNC(=N)N)C(=O)N[C@@H](CCCNC(=N)N)C(=O)NCCc3ccccc3)c2c1` [LTX-109], the MIC stood at 3 µg/mL (≈ 3.81 µM) in data set [1], 8 µg/mL (≈ 10.2 µM) in data set [2] and 2 µg/mL (≈ 2.54 µM) in data set [3]. For the same compound, the HC50 in data set [4] was found to be 175 µg/mL.
